Experimental data from ChEMBL document CHEMBL1201862, “PubChem BioAssay data set” (2004).
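96-well plates; 48 h exposure; 5 concentrations. Endpoints by linear interpolation between flanking doses. Not reached: highest tested concentration assigned. GI50 marks 50% less growth.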 The source made the active and inactive calls. No stated cut-off is given here; in the data, active = GI50 up to about 1.1 µM and inactive = higher.

Tests used:
Assay in all cases: inhibition of tumour cell growth, NCI panel, 48 h
SN12C = tested on: SN12C
SF-539 = tested on: SF-539
UO-31 = tested on: UO-31
M19-MEL = tested on: M19-MEL
SK-MEL-5 = tested on: SK-MEL-5
Malme-3M = tested on: Malme-3M
IGROV-1 = tested on: IGROV-1
HCT-116 = tested on: HCT-116
SK-OV-3 = tested on: SK-OV-3
RPMI-8226 = tested on: RPMI-8226
XF498 = tested on: XF498
NCI-H226 = tested on: NCI-H226
A549 = tested on: A549
SF-268 = tested on: SF-268
DMS-114 = tested on: DMS-114
KM12 = tested on: KM12
U-251 = tested on: U-251
HCC 2998 = tested on: HCC 2998
K562 = tested on: K562
NCI-H522 = tested on: NCI-H522
OVCAR-5 = tested on: OVCAR-5
SW-620 = tested on: SW-620
HOP-18 = tested on: HOP-18
CCRF-CEM = tested on: CCRF-CEM
NCI/ADR-RES = tested on: NCI/ADR-RES
SNB-75 = tested on: SNB-75
A498 = tested on: A498
SK-MEL-2 = tested on: SK-MEL-2
HL-60 = tested on: HL-60
SK-MEL-28 = tested on: SK-MEL-28
HCT-15 = tested on: HCT-15
DLD-1 = tested on: DLD-1
NCI-H460 = tested on: NCI-H460
MOLT-4 = tested on: MOLT-4
EKVX = tested on: EKVX
KM-20L2 = tested on: KM-20L2
UACC-257 = tested on: UACC-257
SNB-19 = tested on: SNB-19
NCI-H23 = tested on: NCI-H23
HOP-92 = tested on: HOP-92
SNB-78 = tested on: SNB-78
OVCAR-3 = tested on: OVCAR-3
HOP-62 = tested on: HOP-62
SF-295 = tested on: SF-295
MCF7 = tested on: MCF7
OVCAR-8 = tested on: OVCAR-8
OVCAR-4 = tested on: OVCAR-4
LOX IMVI = tested on: LOX IMVI
UACC-62 = tested on: UACC-62
RXF 393 = tested on: RXF 393
HT-29 = tested on: HT-29
COLO 205 = tested on: COLO 205
DMS-273 = tested on: DMS-273
MDA-MB-435 = tested on: MDA-MB-435
BT-549 = tested on: BT-549
786-0 = tested on: 786-0
T47D = tested on: T47D
M14 = tested on: M14
SR = tested on: SR
MDA-N = tested on: MDA-N
Hs-578T = tested on: Hs-578T
LXFL 529 = tested on: LXFL 529
PC-3 = tested on: PC-3
CAKI-1 = tested on: CAKI-1
TK-10 = tested on: TK-10
ACHN = tested on: ACHN
DU-145 = tested on: DU-145

With `Nc1cc2c(cc1[N+](=O)[O-])[nH]c1c(-c3ccccc3)nccc12` the GI50 (SN12C) was 22.3 µM (inactive), the GI50 (SF-539) was 24.4 µM (inactive) and the GI50 (UO-31) was 5.77 µM (inactive). The GI50 (M19-MEL) was 17.7 µM (inactive), the GI50 (SK-MEL-5) was 13.5 µM (inactive) and the GI50 (Malme-3M) was 17.4 µM (inactive). The GI50 (IGROV-1) was 8.65 µM (inactive), the GI50 (HCT-116) was 15.3 µM (inactive) and the GI50 (SK-OV-3) was 10.9 µM (inactive). For the same compound, the GI50 (RPMI-8226) was 8.24 µM (inactive), the GI50 (XF498) was 40 µM (inactive) and the GI50 (NCI-H226) was 17 µM (inactive). The GI50 (A549) was 17.4 µM (inactive), the GI50 (SF-268) was 25.2 µM (inactive) and the GI50 (DMS-114) was 12.7 µM (inactive). The GI50 (KM12) was 15.8 µM (inactive), the GI50 (U-251) was 18.8 µM (inactive) and the GI50 (HCC 2998) was 13.2 µM (inactive). The GI50 (K562) was 7.57 µM (inactive), the GI50 (NCI-H522) was 12 µM (inactive) and the GI50 (OVCAR-5) was 27.1 µM (inactive). For the same compound, the GI50 (SW-620) was 25.9 µM (inactive), the GI50 (HOP-18) was 8.41 µM (inactive) and the GI50 (CCRF-CEM) was 7.71 µM (inactive). The GI50 (NCI/ADR-RES) was 14.1 µM (inactive), the GI50 (SNB-75) was 19.2 µM (inactive) and the GI50 (A498) was 30.5 µM (inactive). For the same compound, the GI50 (SK-MEL-2) was 20.2 µM (inactive), the GI50 (HL-60) was 11.8 µM (inactive) and the GI50 (SK-MEL-28) was 27.1 µM (inactive). The GI50 (HCT-15) was 12 µM, the GI50 (DLD-1) was 8.2 µM (inactive) and the GI50 (NCI-H460) was 15.8 µM (inactive). For the same compound, the GI50 (MOLT-4) was 4.43 µM (inactive), the GI50 (EKVX) was 21.7 µM (inactive) and the GI50 (KM-20L2) was 23.6 µM (inactive). For the same compound, the GI50 (UACC-257) was 18 µM (inactive), the GI50 (SNB-19) was 23.8 µM (inactive) and the GI50 (NCI-H23) was 18.7 µM (inactive). The GI50 (HOP-92) was 12 µM (inactive), the GI50 (SNB-78) was 11.2 µM (inactive) and the GI50 (OVCAR-3) was 19.1 µM (inactive). The GI50 (HOP-62) was 15.2 µM (inactive), the GI50 (SF-295) was 21.7 µM (inactive) and the GI50 (MCF7) was 26 µM (inactive). The GI50 (OVCAR-8) was 30.8 µM (inactive), the GI50 (OVCAR-4) was 12.8 µM (inactive) and the GI50 (LOX IMVI) was 13.6 µM (inactive). The GI50 (UACC-62) was 13.6 µM (inactive), the GI50 (RXF 393) was 19.9 µM (inactive) and the GI50 (HT-29) was 14.5 µM (inactive). The GI50 (COLO 205) was 20.7 µM (inactive) and the GI50 (DMS-273) was 18.1 µM (inactive).

`COC(=O)c1ccccc1NCc1cc(O)ccc1O` was tested, and the GI50 (MDA-MB-435) was 17.8 µM (inactive), the GI50 (SN12C) was 18.6 µM (inactive) and the GI50 (SF-539) was 17.7 µM (inactive). For the same compound, the GI50 (UO-31) was 17.5 µM (inactive), the GI50 (BT-549) was 2.71 µM (inactive) and the GI50 (M19-MEL) was 17.5 µM (inactive). For the same compound, the GI50 (SK-MEL-5) was 19 µM (inactive), the GI50 (Malme-3M) was 21.4 µM (inactive) and the GI50 (IGROV-1) was 25.9 µM (inactive). For the same compound, the GI50 (HCT-116) was 19.5 µM (inactive), the GI50 (SK-OV-3) was > 100 µM (inactive) and the GI50 (RPMI-8226) was 10.5 µM (inactive). The GI50 (XF498) was 17.1 µM (inactive), the GI50 (NCI-H226) was 18 µM (inactive) and the GI50 (A549) was 32.7 µM (inactive). The GI50 (SF-268) was 27.9 µM (inactive), the GI50 (KM12) was 17.5 µM (inactive) and the GI50 (786-0) was 17.7 µM (inactive). For the same compound, the GI50 (T47D) was 15.9 µM (inactive), the GI50 (U-251) was 20.1 µM (inactive) and the GI50 (HCC 2998) was 23.4 µM (inactive). The GI50 (M14) was 12.5 µM (inactive), the GI50 (K562) was 19.6 µM (inactive) and the GI50 (NCI-H522) was 2.63 µM (inactive). For the same compound, the GI50 (OVCAR-5) was 29.4 µM (inactive), the GI50 (SW-620) was 24.2 µM (inactive) and the GI50 (HOP-18) was 14.5 µM (inactive). The GI50 (SR) was > 10 µM (inactive), the GI50 (CCRF-CEM) was 4.91 µM (inactive) and the GI50 (NCI/ADR-RES) was 19.2 µM (inactive). The GI50 (MDA-N) was 16.4 µM (inactive), the GI50 (SNB-75) was 28.8 µM (inactive) and the GI50 (A498) was 34.3 µM (inactive). The GI50 (SK-MEL-2) was 22.3 µM (inactive), the GI50 (Hs-578T) was 19.7 µM (inactive) and the GI50 (HL-60) was 8 µM (inactive). For the same compound, the GI50 (LXFL 529) was 17.5 µM (inactive), the GI50 (SK-MEL-28) was 19.1 µM (inactive) and the GI50 (HCT-15) was 18.8 µM. For the same compound, the GI50 (DLD-1) was 20.2 µM (inactive), the GI50 (NCI-H460) was 30.1 µM (inactive) and the GI50 (MOLT-4) was 16.1 µM (inactive). For the same compound, the GI50 (EKVX) was 22 µM (inactive), the GI50 (KM-20L2) was > 100 µM (inactive) and the GI50 (UACC-257) was 15.6 µM (inactive). For the same compound, the GI50 (PC-3) was 17 µM (inactive), the GI50 (SNB-19) was 39 µM (inactive) and the GI50 (CAKI-1) was 19.4 µM (inactive). For the same compound, the GI50 (NCI-H23) was 32.9 µM (inactive), the GI50 (HOP-92) was 17.7 µM (inactive) and the GI50 (SNB-78) was 20.3 µM (inactive). For the same compound, the GI50 (OVCAR-3) was 16.7 µM (inactive), the GI50 (HOP-62) was 28.6 µM (inactive) and the GI50 (SF-295) was 17.9 µM (inactive). The GI50 (MCF7) was 17.6 µM (inactive), the GI50 (TK-10) was 26.1 µM (inactive) and the GI50 (OVCAR-8) was 18.1 µM (inactive). The GI50 (ACHN) was 16.2 µM (inactive), the GI50 (OVCAR-4) was 17.9 µM (inactive) and the GI50 (LOX IMVI) was 17.1 µM (inactive). The GI50 (DU-145) was 50.8 µM (inactive), the GI50 (UACC-62) was 18.2 µM (inactive) and the GI50 (RXF 393) was 15.9 µM (inactive). The GI50 (HT-29) was 21.8 µM (inactive), the GI50 (COLO 205) was 19.4 µM (inactive) and the GI50 (DMS-273) was 51.5 µM (inactive).
